PubChem BioAssay AID1963422 (Molecular Pharmacology Branch, DTP, NCI, 2024)

System: 463943-066-T-J2-PDC complex spheroid growth
Experiment: Anticancer human tumor 463943-066-T-J2-PDC patient-derived colon adenocarcinoma cell line growth inhibition [Asc]
Conditions: for IC50: curve of first compound; for viability, T/C: stronger effect = lower value; active = viability on the fitted dose curve at most 10% of control; inactive = the rest
In short: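 Concentration series start at each agent's clinical Cmax, or at 10 microM when none is established, and drop in half-log steps; agents are applied alone or together to complex spheroids built with HUVEC and hMSC.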

[1] = second compound 0.0316 µM, first compound 0.0316 µM
[2] = second compound 0.0316 µM, first compound 0.1 µM
[3] = second compound 0.0316 µM, first compound 0.316 µM
[4] = second compound 0.0316 µM, first compound 1 µM
[5] = second compound 0.1 µM, first compound 0.0316 µM
[6] = second compound 0.1 µM, first compound 0.1 µM
[7] = second compound 0.1 µM, first compound 0.316 µM
[8] = second compound 0.1 µM, first compound 1 µM
[9] = second compound 0.316 µM, first compound 0.0316 µM
[10] = second compound 0.316 µM, first compound 0.1 µM
[11] = second compound 0.316 µM, first compound 0.316 µM
[12] = second compound 0.316 µM, first compound 1 µM
[13] = second compound 1 µM, first compound 0.0316 µM
[14] = second compound 1 µM, first compound 0.1 µM
[15] = second compound 1 µM, first compound 0.316 µM
[16] = second compound 1 µM, first compound 1 µM
[17] = second compound 3.16 µM, first compound 0.0316 µM
[18] = second compound 3.16 µM, first compound 0.1 µM
[19] = second compound 3.16 µM, first compound 0.316 µM
[20] = second compound 3.16 µM, first compound 1 µM
[21] = second compound 10 µM, first compound 0.0316 µM
[22] = second compound 10 µM, first compound 0.1 µM
[23] = second compound 10 µM, first compound 0.316 µM
[24] = second compound 10 µM, first compound 1 µM
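Also: compound exposure lasted 7 days.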
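For viability, T/C in this document: 100% = DMSO vehicle control wells.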

C#Cc1c(F)ccc2cc(O)cc(-c3ncc4c(N5CC6CCC(C5)N6)nc(OCC56CCCN5CC(F)C6)nc4c3F)c12 (stereo unspecified) + Cc1c(S(C)(=O)=O)c(-c2cc(F)cc(N3CCN(c4ccc(NS(=O)(=O)c5ccc(NC(CCN6CCC(C(=O)OCCCP(=O)(O)O)CC6)CSc6ccccc6)c(S(=O)(=O)C(F)(F)F)c5)cc4)CC3)c2)c(-c2ccc(Cl)cc2)n1C(C)C
> 10 µM: IC50 (second compound 0.0316 µM) | IC50 (second compound 0.1 µM) | IC50 (second compound 0.316 µM) | IC50 (second compound 1 µM) | IC50 (second compound 3.16 µM)
< 0.0316 µM: IC50 (second compound 10 µM)
inactive: viability, T/C [1] 96.3% | viability, T/C [2] 93.3% | viability, T/C [3] 101% | viability, T/C [4] 102% | viability, T/C (second compound 0.0316 µM, first compound 3.16 µM) 103% | viability, T/C (second compound 0.0316 µM, first compound 10 µM) 97.5% | viability, T/C [5] 101% | viability, T/C [6] 97.1% | viability, T/C [7] 101% | viability, T/C [8] 94.1% | viability, T/C (second compound 0.1 µM, first compound 3.16 µM) 98% | viability, T/C (second compound 0.1 µM, first compound 10 µM) 82.1% | viability, T/C [9] 93.4% | viability, T/C [10] 92.8% | viability, T/C [11] 88.4% | viability, T/C [12] 93.1% | viability, T/C (second compound 0.316 µM, first compound 3.16 µM) 97.2% | viability, T/C (second compound 0.316 µM, first compound 10 µM) 73.4% | viability, T/C [13] 74.5% | viability, T/C [14] 76.5% | viability, T/C [15] 80.5% | viability, T/C [16] 80.6% | viability, T/C (second compound 1 µM, first compound 3.16 µM) 77.7% | viability, T/C (second compound 1 µM, first compound 10 µM) 72.3% | viability, T/C [17] 65.3% | viability, T/C [18] 64.3% | viability, T/C [19] 63.3% | viability, T/C [20] 62.1% | viability, T/C (second compound 3.16 µM, first compound 3.16 µM) 65.9% | viability, T/C (second compound 3.16 µM, first compound 10 µM) 61.3% | viability, T/C [21] 48.9% | viability, T/C [22] 47.7% | viability, T/C [23] 50.2% | viability, T/C [24] 51.2% | viability, T/C (second compound 10 µM, first compound 3.16 µM) 51.2% | viability, T/C (second compound 10 µM, first compound 10 µM) 43.9%

CNC(C)C(=O)NC1CN(S(=O)(=O)c2cccc(S(=O)(=O)N3CCC4CCC(C(=O)NC(c5ccccc5)c5ccccc5)N4C(=O)C(NC(=O)C(C)NC)C3)c2)CCC2CCC(C(=O)NC(c3ccccc3)c3ccccc3)N2C1=O (stereo unspecified) + Cc1c(S(C)(=O)=O)c(-c2cc(F)cc(N3CCN(c4ccc(NS(=O)(=O)c5ccc(NC(CCN6CCC(C(=O)OCCCP(=O)(O)O)CC6)CSc6ccccc6)c(S(=O)(=O)C(F)(F)F)c5)cc4)CC3)c2)c(-c2ccc(Cl)cc2)n1C(C)C
inactive: viability, T/C (second compound 0.0316 µM, first compound 0.00316 µM) 99.7% | viability, T/C (second compound 0.0316 µM, first compound 0.01 µM) 97.5% | viability, T/C [1] 97.2% | viability, T/C [2] 99.9% | viability, T/C [3] 97.6% | viability, T/C [4] 80.7% | viability, T/C (second compound 0.1 µM, first compound 0.00316 µM) 100% | viability, T/C (second compound 0.1 µM, first compound 0.01 µM) 91.6% | viability, T/C [5] 96.6% | viability, T/C [6] 94.4% | viability, T/C [7] 98.8% | viability, T/C [8] 74% | viability, T/C (second compound 0.316 µM, first compound 0.00316 µM) 88.6% | viability, T/C (second compound 0.316 µM, first compound 0.01 µM) 89.3% | viability, T/C [9] 88.2% | viability, T/C [10] 87.4% | viability, T/C [11] 93.2% | viability, T/C [12] 70.6% | viability, T/C (second compound 1 µM, first compound 0.00316 µM) 82.8% | viability, T/C (second compound 1 µM, first compound 0.01 µM) 77% | viability, T/C [13] 77.8% | viability, T/C [14] 83.8% | viability, T/C [15] 76.8% | viability, T/C [16] 67.2% | viability, T/C (second compound 3.16 µM, first compound 0.00316 µM) 65.8% | viability, T/C (second compound 3.16 µM, first compound 0.01 µM) 77.3% | viability, T/C [17] 66% | viability, T/C [18] 68.9% | viability, T/C [19] 70.7% | viability, T/C [20] 48.2% | viability, T/C (second compound 10 µM, first compound 0.00316 µM) 52.3% | viability, T/C (second compound 10 µM, first compound 0.01 µM) 49.5% | viability, T/C [21] 52% | viability, T/C [22] 51.3% | viability, T/C [23] 52.5% | viability, T/C [24] 40.8%
0.368 µM: IC50 (second compound 10 µM)
> 1 µM: IC50 (second compound 0.0316 µM) | IC50 (second compound 0.1 µM) | IC50 (second compound 0.316 µM) | IC50 (second compound 1 µM) | IC50 (second compound 3.16 µM)

Cc1nc(N2CCC3(CC2)COC(C)C3N)c(CO)nc1Sc1ccnc(N)c1Cl (stereo unspecified) + Cc1c(S(C)(=O)=O)c(-c2cc(F)cc(N3CCN(c4ccc(NS(=O)(=O)c5ccc(NC(CCN6CCC(C(=O)OCCCP(=O)(O)O)CC6)CSc6ccccc6)c(S(=O)(=O)C(F)(F)F)c5)cc4)CC3)c2)c(-c2ccc(Cl)cc2)n1C(C)C
< 0.00949 µM: IC50 (second compound 10 µM)
inactive: viability, T/C (second compound 0.0316 µM, first compound 0.00949 µM) 106% | viability, T/C (second compound 0.0316 µM, first compound 0.03 µM) 86.8% | viability, T/C (second compound 0.0316 µM, first compound 0.0949 µM) 87.3% | viability, T/C (second compound 0.0316 µM, first compound 0.3 µM) 87.3% | viability, T/C (second compound 0.0316 µM, first compound 0.949 µM) 77.8% | viability, T/C (second compound 0.0316 µM, first compound 3 µM) 63.9% | viability, T/C (second compound 0.1 µM, first compound 0.00949 µM) 93.1% | viability, T/C (second compound 0.1 µM, first compound 0.03 µM) 87.2% | viability, T/C (second compound 0.1 µM, first compound 0.0949 µM) 90.7% | viability, T/C (second compound 0.1 µM, first compound 0.3 µM) 82.4% | viability, T/C (second compound 0.1 µM, first compound 0.949 µM) 75.1% | viability, T/C (second compound 0.1 µM, first compound 3 µM) 58.1% | viability, T/C (second compound 0.316 µM, first compound 0.00949 µM) 84% | viability, T/C (second compound 0.316 µM, first compound 0.03 µM) 85.1% | viability, T/C (second compound 0.316 µM, first compound 0.0949 µM) 78.5% | viability, T/C (second compound 0.316 µM, first compound 0.3 µM) 71.1% | viability, T/C (second compound 0.316 µM, first compound 0.949 µM) 65.8% | viability, T/C (second compound 0.316 µM, first compound 3 µM) 52.4% | viability, T/C (second compound 1 µM, first compound 0.00949 µM) 77.2% | viability, T/C (second compound 1 µM, first compound 0.03 µM) 73.7% | viability, T/C (second compound 1 µM, first compound 0.0949 µM) 66% | viability, T/C (second compound 1 µM, first compound 0.3 µM) 67.6% | viability, T/C (second compound 1 µM, first compound 0.949 µM) 64.9% | viability, T/C (second compound 1 µM, first compound 3 µM) 50.7% | viability, T/C (second compound 3.16 µM, first compound 0.00949 µM) 57% | viability, T/C (second compound 3.16 µM, first compound 0.03 µM) 58.5% | viability, T/C (second compound 3.16 µM, first compound 0.0949 µM) 51% | viability, T/C (second compound 3.16 µM, first compound 0.3 µM) 49.2% | viability, T/C (second compound 3.16 µM, first compound 0.949 µM) 41.4% | viability, T/C (second compound 3.16 µM, first compound 3 µM) 36.5% | viability, T/C (second compound 10 µM, first compound 0.00949 µM) 48.7% | viability, T/C (second compound 10 µM, first compound 0.03 µM) 44.8% | viability, T/C (second compound 10 µM, first compound 0.0949 µM) 41.4% | viability, T/C (second compound 10 µM, first compound 0.3 µM) 39.4% | viability, T/C (second compound 10 µM, first compound 0.949 µM) 35.9% | viability, T/C (second compound 10 µM, first compound 3 µM) 27.6%
0.185 µM: IC50 (second compound 3.16 µM)
> 3 µM: IC50 (second compound 0.0316 µM) | IC50 (second compound 0.1 µM) | IC50 (second compound 0.316 µM) | IC50 (second compound 1 µM)
